Experimental data reported in US20220395549A1, “COMPOSITIONS OF THE OLEA EUROPAEA V. SYLVESTRIS WITH ANTIMICROBIAL EFFICACY” (TAPROGGE GMBH, priority 2019, published 2022).

Test system: S. aureus ATCC 6538
Assay: quantitative suspension assay of mono-substances
Type: cell-based, Staphylococcus aureus
Procedure: A stock solution was prepared by adding 0.1 ml methanol to 10.48 mg of hydroxytyrosol. After dissolving of the compound, the solution was quantitatively transferred into 4.9 ml water for injection (WFI), effective concentration of hydroxytyrosol: 2.0 mg/ml.
Using the stock solution, five (5) concentrations of hydroxytyrosol in a geometric series of 2 mg hydroxytyrosol/ml to 0.125 mg hydroxytyrosol/ml were tested in a quantitative suspension assay.
2 ml of the stock solution and the dilutions (V1 to V4), respectively, and a methanol-solution of 2% as a positive control were inoculated with 0.1 ml of a test suspension of S. aureus ATCC 6538, adjusted to about 2.0×10^5 CFU/0.1 ml, resulting in about 100,000 CFU/ml in the individual assays.
Samples (0.1 ml) were then taken at t 0, 12, 30, and 60 minutes as well as t 24 48, and 72 hours after inoculation and culturing at between 20-25° C., and were diluted with 0.9 ml of 0.9% NaCl solution. The samples were plated on blood agar plates, and incubated up to 5 days at between 30-35° C.
A stock solution was prepared at a concentration of 2 mg/ml of oleocanthal. The compound was dissolved by in ethanol (99.8%) and WFI was added.
Using the stock solution, concentrations of oleocanthal in a geometric series of 1 mg oleocanthal/ml to 0.125 mg oleocanthal/ml were tested in a quantitative suspension assay.
2 ml of the stock solution and the dilutions (V1 to V4), respectively, and a ethanol-solution of 2.85% as a positive control were inoculated with 0.055 ml of a test suspension of S. aureus ATCC 6538, adjusted to about 3.6×10^5 CFU/0.1 ml, resulting in about 99,000 CFU/ml in the individual assays.
A stock solution was prepared at a concentration of 1 mg/ml of oleacin. The compound was dissolved by in ethanol (99.8%) and WFI was added.
Using the stock solution, concentrations of oleacin at 0.25 mg oleacin/ml and 0.125 mg oleacin/ml were tested in a quantitative suspension assay.
2 ml of the stock solution and the dilutions (V1 and V2), respectively, and a ethanol-solution of 0.44% as a positive control were inoculated with 0.055 ml of a test suspension of S. aureus ATCC 6538, adjusted to about 3.5×10^5 CFU/0.1 ml, resulting in about 99,000 CFU/ml in the individual assays.
A stock solution was prepared by adding 0.1 ml chloroform to 25 mg of uvaol. After dissolving of the compound, the solution was quantitatively transferred into 12.4 ml water for injection (WFI), effective concentration of uvaol: 2.0 mg/ml.
Using the stock solution, five (5) concentrations of uvaol in a geometric series of 2 mg uvaol/ml to 0.125 mg uvaol/ml were tested in a quantitative suspension assay.
2 ml of the stock solution and the dilutions (V1 to V4), respectively, and a chloroform-solution of 0.8% as a positive control were inoculated with 0.1 ml of a test suspension of S. aureus ATCC 6538, adjusted to about 2.0×10^5 CFU/0.1 ml, resulting in about 100,000 CFU/ml in the individual assays.
A stock solution was prepared by adding 0.1 ml chloroform to 10.45 mg of erythrodiol. After dissolving of the compound, the solution was quantitatively transferred into 4.9 ml water for injection (WFI), effective concentration of erythrodiol: 2.0 mg/ml.
2 ml of the stock solution and the dilutions (V1 to V4), respectively, and a chloroform-solution of 2% as a positive control were inoculated with 0.1 ml of a test suspension of S. aureus ATCC 6538, adjusted to about 3.6×10^5 CFU/0.1 ml, resulting in about 100.000 CFU/ml in the individual assays.

OCCc1ccc(O)c(O)c1 [Hydroxytyrosol]
Number of CFUs (0.125 Hyd/ml, t 0 min, initial cell load 1.7 × 10^5 CFU/ml): 7.0 × 10^4 CFU/ml | Number of CFUs (0.125 Hyd/ml, t 12 min, initial cell load 1.7 × 10^5 CFU/ml): 7.4 × 10^4 CFU/ml | Number of CFUs (0.125 Hyd/ml, t 30 min, initial cell load 1.7 × 10^5 CFU/ml): 7.0 × 10^4 CFU/ml | Number of CFUs (0.125 Hyd/ml, t 60 min, initial cell load 1.7 × 10^5 CFU/ml): 6.8 × 10^4 CFU/ml | Number of CFUs (0.125 Hyd/ml, t 24 h, initial cell load 1.7 × 10^5 CFU/ml): 2.8 × 10^3 CFU/ml | Number of CFUs (0.125 Hyd/ml, t 48 h, initial cell load 1.7 × 10^5 CFU/ml): <100 CFU/ml | Number of CFUs (0.125 Hyd/ml, t 72 h, initial cell load 1.7 × 10^5 CFU/ml): 7.1 × 10^2 CFU/ml | Number of CFUs (0.25 Hyd/ml, t 0 min, initial cell load 1.7 × 10^5 CFU/ml): 5.7 × 10^4 CFU/ml | Number of CFUs (0.25 Hyd/ml, t 12 min, initial cell load 1.7 × 10^5 CFU/ml): 5.1 × 10^4 CFU/ml | Number of CFUs (0.25 Hyd/ml, t 30 min, initial cell load 1.7 × 10^5 CFU/ml): 5.9 × 10^4 CFU/ml | Number of CFUs (0.25 Hyd/ml, t 60 min, initial cell load 1.7 × 10^5 CFU/ml): 7.4 × 10^4 CFU/ml | Number of CFUs (0.25 Hyd/ml, t 24 h, initial cell load 1.7 × 10^5 CFU/ml): 1.4 × 10^3 CFU/ml | Number of CFUs (0.25 Hyd/ml, t 48 h, initial cell load 1.7 × 10^5 CFU/ml): <100 CFU/ml | Number of CFUs (0.25 Hyd/ml, t 72 h, initial cell load 1.7 × 10^5 CFU/ml): <100 CFU/ml | Number of CFUs (0.5 Hyd/ml, t 0 min, initial cell load 1.7 × 10^5 CFU/ml): 7.0 × 10^4 CFU/ml | Number of CFUs (0.5 Hyd/ml, t 12 min, initial cell load 1.7 × 10^5 CFU/ml): 6.6 × 10^4 CFU/ml | Number of CFUs (0.5 Hyd/ml, t 30 min, initial cell load 1.7 × 10^5 CFU/ml): 6.4 × 10^4 CFU/ml | Number of CFUs (0.5 Hyd/ml, t 60 min, initial cell load 1.7 × 10^5 CFU/ml): 6.1 × 10^4 CFU/ml | Number of CFUs (0.5 Hyd/ml, t 24 h, initial cell load 1.7 × 10^5 CFU/ml): 2.0 × 10^2 CFU/ml | Number of CFUs (0.5 Hyd/ml, t 48 h, initial cell load 1.7 × 10^5 CFU/ml): <100 CFU/ml | Number of CFUs (0.5 Hyd/ml, t 72 h, initial cell load 1.7 × 10^5 CFU/ml): <100 CFU/ml | Number of CFUs (1.0 Hyd/ml, t 0 min, initial cell load 1.7 × 10^5 CFU/ml): 6.8 × 10^4 CFU/ml | Number of CFUs (1.0 Hyd/ml, t 12 min, initial cell load 1.7 × 10^5 CFU/ml): 7.8 × 10^4 CFU/ml | Number of CFUs (1.0 Hyd/ml, t 30 min, initial cell load 1.7 × 10^5 CFU/ml): 7.4 × 10^4 CFU/ml | Number of CFUs (1.0 Hyd/ml, t 60 min, initial cell load 1.7 × 10^5 CFU/ml): 7.2 × 10^4 CFU/ml | Number of CFUs (1.0 Hyd/ml, t 24 h, initial cell load 1.7 × 10^5 CFU/ml): <100 CFU/ml | Number of CFUs (1.0 Hyd/ml, t 48 h, initial cell load 1.7 × 10^5 CFU/ml): <100 CFU/ml | Number of CFUs (1.0 Hyd/ml, t 72 h, initial cell load 1.7 × 10^5 CFU/ml): <100 CFU/ml | Number of CFUs (2.0 Hyd/ml, t 0 min, initial cell load 1.7 × 10^5 CFU/ml): 7.0 × 10^4 CFU/ml | Number of CFUs (2.0 Hyd/ml, t 12 min, initial cell load 1.7 × 10^5 CFU/ml): 8.9 × 10^4 CFU/ml | Number of CFUs (2.0 Hyd/ml, t 30 min, initial cell load 1.7 × 10^5 CFU/ml): 5.9 × 10^4 CFU/ml | Number of CFUs (2.0 Hyd/ml, t 60 min, initial cell load 1.7 × 10^5 CFU/ml): 5.9 × 10^4 CFU/ml | Number of CFUs (2.0 Hyd/ml, t 24 h, initial cell load 1.7 × 10^5 CFU/ml): <100 CFU/ml | Number of CFUs (2.0 Hyd/ml, t 48 h, initial cell load 1.7 × 10^5 CFU/ml): <100 CFU/ml | Number of CFUs (2.0 Hyd/ml, t 72 h, initial cell load 1.7 × 10^5 CFU/ml): <100 CFU/ml

CC=C(C=O)C(CC=O)CC(=O)OCCc1ccc(O)c(O)c1 (stereo in doubt) [oleacin]
Number of CFUs (0.125 Oci/ml, t 0 min, initial cell load 9.9 × 10^4 CFU/ml): 4.3 × 10^3 CFU/ml | Number of CFUs (0.125 Oci/ml, t 12 min, initial cell load 9.9 × 10^4 CFU/ml): <100 CFU/ml | Number of CFUs (0.125 Oci/ml, t 30 min, initial cell load 9.9 × 10^4 CFU/ml): <100 CFU/ml | Number of CFUs (0.125 Oci/ml, t 60 min, initial cell load 9.9 × 10^4 CFU/ml): <100 CFU/ml | Number of CFUs (0.125 Oci/ml, t 24 h, initial cell load 9.9 × 10^4 CFU/ml): <100 CFU/ml | Number of CFUs (0.125 Oci/ml, t 48 h, initial cell load 9.9 × 10^4 CFU/ml): <100 CFU/ml | Number of CFUs (0.125 Oci/ml, t 72 h, initial cell load 9.9 × 10^4 CFU/ml): <100 CFU/ml | Number of CFUs (0.25 Oci/ml, t 0 min, initial cell load 9.9 × 10^4 CFU/ml): 1.8 × 10^3 CFU/ml | Number of CFUs (0.25 Oci/ml, t 12 min, initial cell load 9.9 × 10^4 CFU/ml): <100 CFU/ml | Number of CFUs (0.25 Oci/ml, t 30 min, initial cell load 9.9 × 10^4 CFU/ml): <100 CFU/ml | Number of CFUs (0.25 Oci/ml, t 60 min, initial cell load 9.9 × 10^4 CFU/ml): <100 CFU/ml | Number of CFUs (0.25 Oci/ml, t 24 h, initial cell load 9.9 × 10^4 CFU/ml): <100 CFU/ml | Number of CFUs (0.25 Oci/ml, t 48 h, initial cell load 9.9 × 10^4 CFU/ml): <100 CFU/ml | Number of CFUs (0.25 Oci/ml, t 72 h, initial cell load 9.9 × 10^4 CFU/ml): <100 CFU/ml | antimicrobial effect, summary in words (detection limit of the assay 100 CFU/ml): immediate effect at the concentrations tested
